Converted amounts (≈) assume the structure as drawn.
How the values were obtained:
[1] = physchem; conditions: pH 7.4 buffer
[2] = physchem; conditions: octan-1-ol/water, pH 7.4, LogD7.4

Structure (SMILES)	solubility thermodynamic [1] [µM]	logD [2]
COc1ccc(C(=O)N2CCC(C(=O)c3ccc(F)cc3)CC2)cc1	21.4 (≈ 7.31 µg/mL)	2.92
O=C(c1ccc(F)cc1)C1CCN(C(=O)c2ccc(F)cc2)CC1	30.9 (≈ 10.2 µg/mL)	2.9
CS(=O)(=O)c1cccc(Nc2nccc(Nc3cccc4c3OCO4)n2)c1	5.9 (≈ 2.27 µg/mL)	2.83
CS(=O)(=O)c1cccc(Nc2nccc(Nc3cccc4c3OCC4)n2)c1	44.7 (≈ 17.1 µg/mL)	3
Clc1ccc(-c2nnc3cccc(Cl)n23)c(Cl)c1	52.5 (≈ 15.7 µg/mL)	2.88
Cc1cccc(NS(=O)(=O)c2cccc3nonc23)c1	81.3 (≈ 23.5 µg/mL)	3
Cc1sc2ncnc(SCC(=O)N3CCCC3)c2c1C	100 (≈ 30.7 µg/mL)	2.89
COc1ccc(C(=O)C2CCN(C(=O)c3ccc(F)cc3)CC2)cc1	204 (≈ 69.7 µg/mL)	2.92
O=C(/C=C/Sc1nc[nH]n1)c1ccc(Cl)cc1	35.5 (≈ 9.43 µg/mL)	3.1
O=C(CCN1CCCCC1)Nc1ccc(-c2cccn3c(=O)cc(N4CCOCC4)nc23)c2sc3ccccc3c12	16.6 (≈ 9.42 µg/mL)	2.9
c1ccc(Nc2ccnc3ccccc23)cc1	324 (≈ 71.3 µg/mL)	2.78
Cc1sc(N)nc1-c1ccccc1	955 (≈ 182 µg/mL)	2.75
O=C(c1ccc(Cl)cc1)C1CCN(C(=O)C2CC2)CC1	190 (≈ 55.6 µg/mL)	2.72
O=C(NC1CCCCC1)C1CCCN(S(=O)(=O)c2cccs2)C1 (stereo not given)	4.2 (≈ 1.5 µg/mL)	2.93
CC(=O)Nc1cc(CN2C(=O)N(c3ccc(SC(F)(F)F)cc3)C(=O)C2(C)C)ccn1	13.2 (≈ 5.97 µg/mL)	2.93
COc1cc(CO)cc(N(C)c2ccnc(Nc3cc(N4CCOCC4)cc(N4CCOCC4)c3)n2)c1	195 (≈ 98.8 µg/mL)	3
CC(C)OC(=O)N1CCC(Oc2ncnc3c2cnn3-c2ccc(S(C)(=O)=O)cc2F)CC1	2.1 (≈ 1 µg/mL)	3
O=c1cc(N2CCOCC2)nc2c3ccccc3ccn12	44.7 (≈ 12.6 µg/mL)	2.78
CC(=O)N1CCN(c2ccc(Nc3nccc(-c4cnc5ccccn45)n3)cc2)CC1	8.5 (≈ 3.51 µg/mL)	2.82
CN(C(=O)c1ccncc1)C1CCN(CCC(c2ccccc2)c2ccccc2)CC1	537 (≈ 222 µg/mL)	2.8
O=C(Nc1cccc(O)c1)c1ccc(OCCCN2CCCC2)cc1OCc1ccccc1	6.6 (≈ 2.95 µg/mL)	3.07
Clc1ccc(CN(Cc2ccc(Cl)cc2)c2nnn[nH]2)cc1	118 (≈ 39.3 µg/mL)	2.74
O=C(NC1CCCCC1)c1cccnc1Sc1ccccc1	22.9 (≈ 7.15 µg/mL)	3.01
O=C(Nc1ccc(N2CCOCC2)nc1)c1nnc(Nc2ccccc2)o1	1.9 (≈ 0.696 µg/mL)	2.9

Structure (SMILES)	solubility thermodynamic [1] [µM]	logD [2]
CC(C)(C(=O)Nc1nnc(C(=O)Nc2ccc(N3CCOCC3)cc2)o1)c1ccc(Cl)cc1	200 (≈ 93.8 µg/mL)	2.96
CC(C)N1CCO[C@@H](CN2CCN(C(=O)Nc3ccc(Cl)c(Cl)c3)CC2)C1	1120 (≈ 466 µg/mL)	2.77
CCCSc1nc2ccc(NC(=O)CCNC(N)=O)cc2s1	93.3 (≈ 31.6 µg/mL)	2.9
CC(C)Cn1c(=O)n(C)c(=O)c2c(C(=O)N3CC[C@@H](O)C3)c(Cc3ccccc3C(F)(F)F)sc21	550 (≈ 280 µg/mL)	2.74
C[C@@H]1CN(C(=O)OC(C)(C)C)CCN1c1ncc(OCc2ccc(C#N)cc2)cn1	3.4 (≈ 1.39 µg/mL)	2.89
CCCOc1nc(N2CCC[C@@H](CC(=O)O)C2)ccc1C(=O)NC1CCCCC1	550 (≈ 222 µg/mL)	2.81
CC[C@@H]1COCCN1c1cc(C2(S(C)(=O)=O)CC2)nc(-c2cccc3[nH]ccc23)n1	79.4 (≈ 33.9 µg/mL)	3
CS(=O)(=O)Cc1cc(N2CCOCC2)nc(-c2cccc3cc[nH]c23)n1	1.1 (≈ 0.41 µg/mL)	2.8
O=C(COc1ccccc1)c1ccccc1	170 (≈ 36 µg/mL)	2.87
NC1(Cc2ccc(Cl)cc2)CCN(c2ncnc3[nH]ccc23)CC1	339 (≈ 116 µg/mL)	2.72
O=c1[nH]c2cc(Cl)ccc2c(O)c1-c1cccc(Oc2ccccc2)c1	2.5 (≈ 0.909 µg/mL)	2.96
Cc1c(-c2ccccc2F)c(=O)n(C[C@H](N)c2ccccc2)c(=O)n1Cc1c(F)cccc1F	407 (≈ 190 µg/mL)	2.76
O=C(O)c1c(Sc2ccccc2)c2cc(Cl)ccc2n1Cc1ccc(Cl)cc1	132 (≈ 56.5 µg/mL)	2.96
CN(C)C(=O)[C@H](Cc1ccccc1)NC(=O)c1cc2sccc2[nH]1	17 (≈ 5.8 µg/mL)	3.1
C[C@H](NC1=NC(=O)[C@](C)(C(F)(F)F)S1)c1ccccc1F	87.1 (≈ 27.9 µg/mL)	3.1
Cc1cnc(NC(=O)Cc2ccccc2)s1	17 (≈ 3.95 µg/mL)	2.9
C[C@H](NC1=NC(=O)C(C)(C(F)(F)F)S1)c1ccccc1F (stereo not given in full)	339 (≈ 109 µg/mL)	3.1
Cn1cnc(-c2ccccc2)c1C#Cc1ccnc(N)n1	17 (≈ 4.68 µg/mL)	2.94
CSc1nc(N)nc(-c2ccccc2)n1	24 (≈ 5.24 µg/mL)	2.98
Cc1cccc(C[C@H](NC(=O)c2cc(C(C)(C)C)nn2C)C(=O)NCC#N)c1	63.1 (≈ 24.1 µg/mL)	3.1
O=C1NC(=O)C(Cc2cccc(Oc3ccccc3)c2)S1 (stereo not given)	339 (≈ 101 µg/mL)	2.84
O=c1[nH]nc(Cc2ccccc2)c2ccccc12	24.5 (≈ 5.79 µg/mL)	2.8
Cn1c(C#N)ccc1-c1ccc2c(c1)C(C)(C)OC(=O)N2	13.2 (≈ 3.71 µg/mL)	2.85

Next, values leading:

solubility thermodynamic [1] [µM]	logD [2]	Structure (SMILES)
6.8 (≈ 2.59 µg/mL)	2.91	CS(=O)(=O)c1cccc(Nc2nccc(Nc3cccc4[nH]ncc34)n2)c1
5.1 (≈ 2.59 µg/mL)	2.78	Clc1n[nH]c2cccc(Nc3ccnc(Nc4cc(N5CCOCC5)cc(N5CCOCC5)c4)n3)c12
2.5 (≈ 1.18 µg/mL)	3.05	c1cc(Nc2ccnc(Nc3cc(N4CCOCC4)cc(N4CCOCC4)c3)n2)c2cn[nH]c2c1
30.9 (≈ 7.08 µg/mL)	2.9	Cc1cc2c(C)cc(=O)oc2c2c1NCCC2
229 (≈ 84.9 µg/mL)	2.98	OCCNCc1cc(Br)ccc1OCc1ccc(Cl)cc1
372 (≈ 187 µg/mL)	3	Cc1ccc(CO)cc1N(C)c1ccnc(Nc2cc(CN3CCOCC3)cc(N3CCOCC3)c2)n1
302 (≈ 161 µg/mL)	2.8	COCCN(c1ccnc(Nc2cc(N3CCOCC3)cc(N3CCOCC3)c2)n1)c1cc(CO)ccc1C
0.9 (≈ 0.422 µg/mL)	2.8	COc1cc(N2CCN(C(C)=O)CC2)ccc1Nc1ncc(C#N)c(-c2cnc3ccccn23)n1
5 (≈ 2.29 µg/mL)	2.9	COc1cc(N2CCN(C(C)=O)CC2)ccc1Nc1ncc(C)c(-c2cnc3ccccn23)n1
15.1 (≈ 6.42 µg/mL)	3.1	Cc1ccc(NC(=O)c2ccnc(N3CCOCC3)c2)cc1Nc1ccnc(Cl)n1
170 (≈ 80.7 µg/mL)	3.05	COc1cc2c(Nc3ccc(Br)cc3F)ncnc2cc1OC[C@@H]1CCCN(C)C1
12.3 (≈ 5.7 µg/mL)	2.8	Cc1nc(S(C)(=O)=O)ccc1Nc1ncnc(OC2CCN(C(=O)OC(C)C)CC2)c1C
603 (≈ 315 µg/mL)	2.75	CCN1C(=O)N(C)c2cnc(Nc3ccc(C(=O)NC4CCN(C)CC4)cc3OC)nc2N1C1CCCC1
26.9 (≈ 15.6 µg/mL)	2.89	COc1cc2c(Nc3ncc(CC(=O)Nc4cccc(F)c4)s3)ncnc2cc1OCCCN1CCC(CO)CC1
37.2 (≈ 17.8 µg/mL)	2.79	CCc1[nH]nc(NC(=O)Cc2ncc(Oc3ccnc4cc(OC)c(OC)cc34)cc2OC)c1C
77.6 (≈ 30.4 µg/mL)	3.1	O=C(Nc1ccc(Oc2cccnc2)nc1)c1nnc(Nc2ccccc2F)o1
2.6 (≈ 0.999 µg/mL)	3	O=C(Nc1ccc(N2CCOCC2)nc1)c1nnc(Nc2ccc(F)cc2)o1

solubility thermodynamic [1] [µM]	logD [2]	Structure (SMILES)
4.6 (≈ 1.82 µg/mL)	2.8	COc1cccc(Nc2nnc(C(=O)Nc3ccc(N4CCOCC4)nc3)o2)c1
6.3 (≈ 2.98 µg/mL)	3.1	O=C(Nc1ccc(N2CCOCC2)nc1)c1nnc(Nc2cccc(OCc3ccccn3)c2)o1
436 (≈ 201 µg/mL)	3.09	COc1cc2ncnc(Nc3cccc(Cl)c3F)c2cc1CN1C[C@H](OC)C[C@@H]1C(N)=O
61.7 (≈ 22.5 µg/mL)	2.92	Cc1cc(Nc2nc(NCc3cc(C)no3)ncc2Br)[nH]n1
120 (≈ 50.8 µg/mL)	3.07	COCCCc1cc(Nc2nc(NCc3cc(C)no3)ncc2Br)[nH]n1
0.6 (≈ 0.261 µg/mL)	3.1	COc1cc(CCc2cc(Nc3ccnc(NCc4cc(C)no4)n3)n[nH]2)cc(OC)c1
2.5 (≈ 1.08 µg/mL)	3.07	COc1cc(Nc2cc(Nc3c(Cl)ccc4c3OCO4)ncn2)cc(OC)c1OC
95.5 (≈ 48.7 µg/mL)	2.82	C[C@@H](Oc1cccc2ncnc(Nc3ccc4c(cnn4Cc4ccccn4)c3)c12)C(=O)N1CCOCC1
91.2 (≈ 37.3 µg/mL)	3.02	COc1cc(OC2CCN(C)CC2)c2c(Nc3cccc4c3OCO4)ncnc2c1
27.5 (≈ 14.1 µg/mL)	3.06	CC(=O)N1CCN(CCOc2cc(OC(C)C)c3c(Nc4c(F)ccc5c4OCO5)ncnc3c2)CC1
295 (≈ 138 µg/mL)	2.89	C[C@@H](Oc1cccc2ncnc(Nc3ccc4c(cnn4Cc4ccccn4)c3)c12)C(=O)N(C)C
12 (≈ 5.59 µg/mL)	2.87	Clc1cc(Nc2ncnc3[nH]nc(OCCN4CCCC4)c23)ccc1OCc1ccccn1
6.2 (≈ 2.68 µg/mL)	3.01	COc1cc(Nc2ncnc(Nc3c(Cl)ccc4c3OCO4)n2)cc(OC)c1OC
151 (≈ 78.1 µg/mL)	2.81	C[C@@H](Oc1cccc2ncnc(Nc3ccc4c(cnn4Cc4cscn4)c3)c12)C(=O)N1CCOCC1
21.9 (≈ 7.48 µg/mL)	2.81	COc1cc2ncc(C(N)=O)c(Nc3ccccc3F)c2cc1OC
417 (≈ 98.1 µg/mL)	2.85	Cc1ccccc1Nc1ncnc2ccccc12

Reference: ChEMBL document CHEMBL3301361, “Experimental in vitro DMPK and physicochemical data on a set of publicly disclosed compounds”
